In US20090030207A1, “Polymorphs of Dolasetron base and process for preparation thereof” (priority 2007, published 2009):

Assays:
[1] = assay type: physicochemical; conditions: for CRYSTAL FORM: 100% relative humidity, 1 week, 25 ± 2° C.
From the text: ARL X-ray powder diffractometer model X'TRA-030, Peltier detector, round standard aluminum sample holder with round zero background quartz plate was used. Scanning parameters: Range: 2-40 deg. 2θ, continuous Scan, Rate: 3 deg./min. The accuracy of peak positions is defined as +/−0.2 degrees due to experimental differences like instrumentations, sample preparations etc. Hygroscopicity Table and Stability Measurements of Form G and J

[2] = Hygroscopicity: water content after 1 week storage at defined relative humidity; assay type: physicochemical; conditions: for WATER CONTENT: 1 week, 25 ± 2° C.; for INITIAL water content: before storage
From the text: Hygroscopicity Table and Stability Measurements of Form G and J

Structure (SMILES): O=C(O[C@@H]1C[C@@H]2C[C@H]3C[C@H](C1)N2CC3=O)c1c[nH]c2ccccc12 [Form J, Dolasetron base]
- crystalline stability (conversion to another polymorph upon storage) [1]: stable polymorphic form
- CRYSTAL FORM [1]: B >> J
- WATER CONTENT ([2]; 40% relative humidity): <0.1%
- WATER CONTENT ([2]; 60% relative humidity): <0.1%
- WATER CONTENT ([2]; 80% relative humidity): 0.2%
- WATER CONTENT ([2]; 100% relative humidity): 5.5%
- INITIAL water content [2]: INITIAL water content: <0.1%

Structure (SMILES): O=C(O[C@@H]1C[C@@H]2C[C@H]3C[C@H](C1)N2CC3=O)c1c[nH]c2ccccc12 [Form G, Dolasetron base]
- crystalline stability (conversion to another polymorph upon storage) [1]: stable polymorphic form
- CRYSTAL FORM [1]: B >> G
- WATER CONTENT ([2]; 40% relative humidity): <0.1%
- WATER CONTENT ([2]; 60% relative humidity): <0.1%
- WATER CONTENT ([2]; 80% relative humidity): <0.1%
- WATER CONTENT ([2]; 100% relative humidity): 4.1%
- INITIAL water content [2]: INITIAL water content: 0.1%
